pIC50: −log10 of the molar value.
Target: T1, ACAT 2 (Mus musculus, UniProt O88908)
T1 construct: The source of ACAT 2 enzyme used was a membrane fraction derived from mouse liver microsome; from tissue; host or cells: mouse liver (microsome fraction)
T1 sequence (O88908 1-525): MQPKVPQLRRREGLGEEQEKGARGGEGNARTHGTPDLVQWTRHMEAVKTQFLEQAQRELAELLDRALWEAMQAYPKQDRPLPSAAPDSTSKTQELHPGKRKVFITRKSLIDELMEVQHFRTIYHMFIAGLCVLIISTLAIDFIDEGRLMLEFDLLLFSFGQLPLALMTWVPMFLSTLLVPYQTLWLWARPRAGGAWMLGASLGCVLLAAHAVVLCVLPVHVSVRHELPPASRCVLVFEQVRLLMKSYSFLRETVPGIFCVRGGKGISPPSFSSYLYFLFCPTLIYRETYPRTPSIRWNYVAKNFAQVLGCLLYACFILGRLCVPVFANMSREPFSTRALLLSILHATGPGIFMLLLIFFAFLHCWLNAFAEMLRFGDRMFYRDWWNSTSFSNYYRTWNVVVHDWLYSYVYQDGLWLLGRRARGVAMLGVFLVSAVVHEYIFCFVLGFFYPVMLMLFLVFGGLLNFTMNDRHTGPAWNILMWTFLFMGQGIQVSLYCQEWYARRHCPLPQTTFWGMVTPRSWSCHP
Assay: ACAT-inhibiting activity, mouse liver microsome membrane fraction, [14C]oleoyl-CoA
Assay type: biochemical
Details: for pIC50: mouse liver microsome, 5 minutes at 37° C.; for Specific activity: (inhibitory activity of test compound)/(inhibitory activity of pyripyropene A): relative to pyripyropene A
Method: The source of ACAT 2 enzyme used was a membrane fraction derived from mouse liver microsome. Mouse liver was homogenized in buffer solution A (50 mM Tris-HCl (pH 7.8), 1 mM ethylenediamine tetraacetate, and 1 mM phenylmethanesulfonyl fluoride) using a homogenizer of the Potter type (Tokyo-RIKO). The homogenate was centrifuged at 12000×g, and the supernatant was ultracentrifuged at 100000×g. The sediment was taken as a microsome fraction, and this fraction was adjusted to have a protein concentration of 5 mg/ml using buffer solution A.
The chloroform layer was evaporated to dryness and was used to spot a thin layer chromatography plate (silica gel plate, Merck, 0.5 mm thickness). Elution for separation was carried out using a solvent of hexane/diethyl ether/acetic acid (70:30:1, v/v).

SMILES	pIC50	Specific activity: (inhibitory activity of test compound)/(inhibitory activity of pyripyropene A)
CC(=O)OCC1(C)C2C[C@H](OC(=O)c3ccc(-c4ccccc4)cc3)[C@@]3(C)Oc4cc(-c5cccnc5)oc(=O)c4[C@H](O)C3[C@@]2(C)CC[C@@H]1OC(C)=O (some centres unmarked) [PRD 034, 7-p-biphenyl-4-carboxyl-7-deacetylpyripyropene A]	6.00 to 7.00	+ (5 > specific activity > 1)
CC12COC(c3ccccc3)O[C@H]1CC[C@@]1(C)C2C[C@H](OC(=O)c2ccccc2F)[C@@]2(C)Oc3cc(-c4cccnc4)oc(=O)c3[C@H](O)C12 (some centres unmarked) [PRD 046, 1,11-O-benzylidene-7-O-o-fluorobenzoyl-1,7,11-trideacetylpyripyropene A]	7.00 to 8.00	+++ (50 > specific activity > 10)
CC(=O)OCC1(C)C(OC(C)=O)CCC2(C)C1CC(OC(=O)c1ccccc1I)C1(C)Oc3cc(-c4cccnc4)oc(=O)c3C(O)C21 (centres unmarked) [PRD 004, 7-o-iodobenzoyl-7-deacetylpyripyropene A]	–	+++ (50 > specific activity > 10)
COc1cccc(C(=O)O[C@H]2CC3C(C)(COC(C)=O)[C@@H](OC(C)=O)CC[C@]3(C)C3[C@@H](O)c4c(cc(-c5cccnc5)oc4=O)O[C@@]32C)c1 (some centres unmarked) [PRD 002, 7-m-methoxybenzoyl-7-deacetylpyripyropene A]	7.00 to 8.00	+++ (50 > specific activity > 10)
CC12CO[Si](C(C)(C)C)(C(C)(C)C)O[C@H]1CC[C@@]1(C)C2C[C@H](OC(=O)c2ccc(C#N)cc2)[C@@]2(C)Oc3cc(-c4cccnc4)oc(=O)c3[C@H](O)C12 (some centres unmarked) [PRD 059, 7-O-p-cyanobenzoyl-1,11-O-(di-tert-butylsilylene)-1,7,11-trideacetylpyripyropene A]	6.00 to 7.00	+ (5 > specific activity > 1)
CC(=O)OCC1(C)C2C[C@H](OC(=O)c3ccccc3C#N)[C@@]3(C)Oc4cc(-c5cccnc5)oc(=O)c4[C@H](O)C3[C@@]2(C)CC[C@@H]1OC(C)=O (some centres unmarked) [PRD 015, 7-o-cyanobenzoyl-7-deacetylpyripyropene A]	6.00 to 7.00	+ (5 > specific activity > 1)
COc1ccc(-n2nnnc2S[C@@H]2CC3C(C)(COC(C)=O)[C@@H](OC(C)=O)CC[C@]3(C)C3[C@@H](O)c4c(cc(-c5cccnc5)oc4=O)O[C@@]32C)cc1 (stereo partly drawn) [PRD 066, 7-(R)-{sulfinyl-5-(p-methoxyphenyl)tetrazol-1-yl}-7-(S)-deacetylpyripyropene A]	6.00 to 7.00	+ (5 > specific activity > 1)
CC(=O)OCC1(C)C2C[C@H](OC(=O)c3ccc4ccccc4c3)[C@@]3(C)Oc4cc(-c5cccnc5)oc(=O)c4[C@H](O)C3[C@@]2(C)CC[C@@H]1OC(C)=O (some centres unmarked) [PRD 037, 7-2-naphthoyl-7-deacetylpyripyropene A]	6.00 to 7.00	+ (5 > specific activity > 1)
CC(=O)OCC1(C)C2C[C@H](OC(=O)c3ccccc3)[C@@]3(C)Oc4cc(-c5cccnc5)oc(=O)c4[C@H](O)C3[C@@]2(C)CC[C@@H]1OC(C)=O (some centres unmarked) [PRD 027, 7-benzoyl-7-deacetylpyripyropene A]	7.00 to 8.00	+++ (50 > specific activity > 10)
CC(=O)OCC1(C)C2C[C@H](OC(=O)Cn3cc(C)c(=O)[nH]c3=O)[C@@]3(C)Oc4cc(-c5cccnc5)oc(=O)c4[C@H](O)C3[C@@]2(C)CC[C@@H]1OC(C)=O (some centres unmarked) [PRD 090, 7-O-1-thymineacetyl-7-deacetylpyripyropene A]	6.00 to 7.00	+ (5 > specific activity > 1)
CC(=O)OCC1(C)C2C[C@H](OC(=O)c3ccccc3F)[C@@]3(C)Oc4cc(-c5cccnc5)oc(=O)c4[C@H](O)C3[C@@]2(C)CC[C@@H]1OC(C)=O (some centres unmarked) [PRD 028, 7-o-fluorobenzoyl-7-deacetylpyripyropene A]	7.00 to 8.00	+++ (50 > specific activity > 10)
CC12COC(c3ccccc3)O[C@H]1CC[C@@]1(C)C2C[C@H](OC(=O)c2ccc(Cl)cc2)[C@@]2(C)Oc3cc(-c4cccnc4)oc(=O)c3[C@H](O)C12 (some centres unmarked) [PRD 051, 1,11-O-benzylidene-7-O-p-chlorobenzoyl-1,7,11-trideacetylpyripyropene A]	7.00 to 8.00	++ (10 > specific activity > 5)
CC(=O)OCC1(C)C2C[C@H](OC(=O)c3ccc(Br)c(F)c3)[C@@]3(C)Oc4cc(-c5cccnc5)oc(=O)c4[C@H](O)C3[C@@]2(C)CC[C@@H]1OC(C)=O (some centres unmarked) [PRD 105, 7-O-p-bromo-m-fluorobenzoyl-7-deacetylpyripyropene A]	> 8.00	+++ (50 > specific activity > 10)
CC12COC(c3ccccc3)O[C@H]1CC[C@@]1(C)C2C[C@H](OC(=O)c2ccc(F)cc2)[C@@]2(C)Oc3cc(-c4cccnc4)oc(=O)c3[C@H](O)C12 (some centres unmarked) [PRD 048, 1,11-O-benzylidene-7-O-p-fluorobenzoyl-1,7,11-trideacetylpyripyropene A]	7.00 to 8.00	++ (10 > specific activity > 5)
COc1ccccc1C(=O)O[C@H]1CC2C(C)(COC(C)=O)[C@@H](OC(C)=O)CC[C@]2(C)C2[C@@H](O)c3c(cc(-c4cccnc4)oc3=O)O[C@@]21C (some centres unmarked) [PRD 001, 7-o-methoxybenzoyl-7-deacetylpyripyropene A]	7.00 to 8.00	+ (5 > specific activity > 1)
CC12COC(c3ccccc3)O[C@H]1CC[C@@]1(C)C2C[C@H](OC(=O)c2ccc(C=O)cc2)[C@@]2(C)Oc3cc(-c4cccnc4)oc(=O)c3[C@H](O)C12 (some centres unmarked) [PRD 054, 1,11-O-benzylidene-7-O-p-formylbenzoyl-1,7,11-trideacetylpyripyropene A]	7.00 to 8.00	+ (5 > specific activity > 1)
CC(=O)OCC1(C)C2C[C@H](OC(=O)c3ccc([N+](=O)[O-])cc3)[C@@]3(C)Oc4cc(-c5cccnc5)oc(=O)c4[C@H](O)C3[C@@]2(C)CC[C@@H]1OC(C)=O (some centres unmarked) [PRD 029, 7-p-nitrobenzoyl-7-deacetylpyripyropene A]	7.00 to 8.00	+ (5 > specific activity > 1)
COc1ccc(CCC(=O)O[C@H]2CC3C(C)(COC(C)=O)[C@@H](OC(C)=O)CC[C@]3(C)C3[C@@H](O)c4c(cc(-c5cccnc5)oc4=O)O[C@@]32C)cc1 (some centres unmarked) [PRD 084, 7-O-3-(4-methoxyphenyl)propionyl-7-deacetylpyripyropene A]	7.00 to 8.00	+++ (50 > specific activity > 10)
CCc1ccc(C(=O)O[C@H]2CC3C(C)(COC(C)=O)[C@@H](OC(C)=O)CC[C@]3(C)C3[C@@H](O)c4c(cc(-c5cccnc5)oc4=O)O[C@@]32C)cc1 (some centres unmarked) [PRD 025, 7-p-ethylbenzoyl-7-deacetylpyripyropene A]	–	++++ (100 > specific activity > 50)
CC(=O)OCC1(C)C2C[C@H](OC(=O)c3ccccc3Cl)[C@@]3(C)Oc4cc(-c5cccnc5)oc(=O)c4[C@H](O)C3[C@@]2(C)CC[C@@H]1OC(C)=O (some centres unmarked) [PRD 010, 7-o-chlorobenzoyl-7-deacetylpyripyropene A]	7.00 to 8.00	+++ (50 > specific activity > 10)
CC(=O)OCC1(C)C2C[C@H](OC(=O)c3cccc(Br)c3)[C@@]3(C)Oc4cc(-c5cccnc5)oc(=O)c4[C@H](O)C3[C@@]2(C)CC[C@@H]1OC(C)=O (some centres unmarked) [PRD 026, 7-m-bromobenzoyl-7-deacetylpyripyropene A]	> 8.00	++++ (100 > specific activity > 50)
CC(=O)OCC1(C)C2C[C@H](OC(=O)c3ccc(=O)oc3)[C@@]3(C)Oc4cc(-c5cccnc5)oc(=O)c4[C@H](O)C3[C@@]2(C)CC[C@@H]1OC(C)=O (some centres unmarked) [PRD 098, 7-O-2-pyrone-5-carboxyl-7-deacetylpyripyropene A]	6.00 to 7.00	+ (5 > specific activity > 1)
CC12CO[Si](C(C)(C)C)(C(C)(C)C)O[C@H]1CC[C@@]1(C)C2C[C@H](OC(=O)c2ccc(C#N)cc2)[C@@]2(C)Oc3cc(-c4cccnc4)oc(=O)c3[C@H](OC(=O)c3ccc(C#N)cc3)C12 (some centres unmarked) [PRD 060, 7,13-di-(O-p-cyanobenzoyl)-1,11-O-(di-tert-butylsilylene)-1,7,11-trideacetylpyripyropene A]	6.00 to 7.00	+ (5 > specific activity > 1)
